Tests used:
Assay in all cases: relative viability (nuclei count vs DMSO), 5 days (fraction); higher = more cells survive
XAV939 = compound: Oc1nc(-c2ccc(C(F)(F)F)cc2)nc2c1CSCC2 [XAV939]
Summary of the method: (§1)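 In 1536-well plates, lung cancer cell lines rested overnight at 37 °C before five library-drug doses (not always all listed), √10 apart, were pinned onto vehicle-anchored plates. Nuclei were counted with MetaXpress from 4× Hoechst images taken after 5 days without medium change. Viability compares treated-well with vehicle-well nuclei as a median over plates, and plates needed control CV below 25% plus at least one doubling to pass.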

C-75 = compound: CCCCCCCC[C@H]1[C@@H](C(=C)C(=O)O1)C(=O)O [C-75]
Summary of the method: as §1

AZD7762 = compound: NC(=O)Nc1cc(-c2cccc(F)c2)sc1C(=O)N[C@H]1CCCNC1 [AZD7762]
Summary of the method: as §1

[1] = compound: O=C(O)c1ccc(-c2c[nH]c3ncc(-c4ccccc4)cc23)cc1C1CCCC1
Summary of the method: as §1

Navitoclax = compound: CC1(C)CCC(c2ccc(Cl)cc2)=C(CN2CCN(c3ccc(C(=O)NS(=O)(=O)c4ccc(N[C@H](CCN5CCOCC5)CSc5ccccc5)c(S(=O)(=O)C(F)(F)F)c4)cc3)CC2)C1 [Navitoclax]
Summary of the method: as §1

Cell Line | relative viability (XAV939; 0.08 µM) | relative viability (XAV939; 0.253 µM) | relative viability (XAV939; 0.8 µM) | relative viability (XAV939; 2.53 µM) | relative viability (C-75; 0.08 µM) | relative viability (C-75; 0.253 µM) | relative viability (C-75; 0.8 µM) | relative viability (C-75; 2.53 µM) | relative viability (C-75; 8 µM) | relative viability (AZD7762; 0.01 µM) | relative viability (AZD7762; 0.03162 µM) | relative viability (AZD7762; 0.1 µM) | relative viability (AZD7762; 0.2 µM, anchor plate) | relative viability (AZD7762; 0.3162 µM) | relative viability (AZD7762; 1 µM) | relative viability ([1]; 0.04 µM) | relative viability ([1]; 0.1265 µM) | relative viability ([1]; 0.4 µM) | relative viability ([1]; 1.265 µM) | relative viability (Navitoclax; 0.005 µM) | relative viability (Navitoclax; 0.01581 µM) | relative viability (Navitoclax; 0.05 µM) | relative viability (Navitoclax; 0.1581 µM) | relative viability (Navitoclax; 0.5 µM) | relative viability (Navitoclax; 0.5 µM, anchor plate)
HCC-366 | 0.971 | 0.9 | 1 | 1.01 | 0.974 | 1.11 | 0.975 | 0.763 | 0.982 | 0.981 | 1.03 | 0.998 | 0.289 | 0.886 | 0.393 | 1 | 1.02 | 0.998 | 0.971 | 1.04 | 1.05 | 0.728 | 0.968 | 1.07 | 1.03
NCI-H2087 | 1.32 | 0.781 | 1.07 | 0.849 | 1.06 | 0.963 | 0.941 | 0.915 | 0.924 | 1.02 | 1.08 | 1.26 | 1.24 | 1.23 | 1.24 | 1.12 | 1.14 | 1.04 | 0.794 | 1.01 | 1.16 | – | 1.01 | 1.09 | 0.952
NCI-H3122 | 1.01 | 0.936 | 1.02 | 0.966 | 1 | 1 | 0.996 | 0.692 | 0.992 | 1.01 | 1.02 | 1.01 | 0.983 | 0.88 | 1.04 | 0.986 | 1.04 | 0.959 | 0.946 | 1.01 | 0.965 | 1.06 | 0.989 | 0.972 | 1.01
LXF-289 | 1 | 0.94 | 0.998 | 1.03 | 0.958 | 0.95 | 0.983 | 0.862 | 1.02 | 0.963 | 1.02 | 1.05 | 1.1 | 0.979 | 1.07 | 0.969 | 0.967 | 0.876 | 0.703 | 0.974 | 0.989 | 0.884 | 0.99 | 0.972 | 0.949
NCI-H1299 | 1.04 | 0.939 | 1.06 | 1.03 | 1.01 | 0.98 | 1.02 | 0.899 | 1.03 | 1.06 | 1.01 | 1.06 | – | 1.02 | 0.56 | 1.03 | 1.04 | 0.957 | 0.878 | 1 | 1.05 | 1 | 1.01 | 1.03 | 1.03
LOU-NH91 | 0.979 | 0.868 | 0.954 | 0.953 | 0.959 | 0.977 | 0.862 | 0.778 | 0.969 | 0.941 | 1.1 | 0.975 | 0.784 | 0.894 | 0.775 | 0.934 | 1.14 | 0.975 | 0.915 | 1.01 | 1 | 0.921 | 0.865 | 0.513 | 0.718
A549 | 1.05 | 0.798 | 0.911 | 0.811 | 0.944 | 1.14 | 0.874 | 0.83 | 0.913 | 1 | 0.982 | 0.994 | – | 0.974 | 0.507 | 0.957 | 1.03 | 0.99 | 0.818 | 0.974 | 1.05 | 0.999 | 0.956 | 0.935 | 1.23

Source: the supplement of paper PMC10307832
